{"source": "ChEMBL document CHEMBL1201862", "about": "“PubChem BioAssay data set” (2004)", "key": {"[1]": {"target": "T1, Mitochondrial peptide methionine sulfoxide reductase (Bos taurus, UniProt P54149)", "T1 sequence (P54149 whole entry)": "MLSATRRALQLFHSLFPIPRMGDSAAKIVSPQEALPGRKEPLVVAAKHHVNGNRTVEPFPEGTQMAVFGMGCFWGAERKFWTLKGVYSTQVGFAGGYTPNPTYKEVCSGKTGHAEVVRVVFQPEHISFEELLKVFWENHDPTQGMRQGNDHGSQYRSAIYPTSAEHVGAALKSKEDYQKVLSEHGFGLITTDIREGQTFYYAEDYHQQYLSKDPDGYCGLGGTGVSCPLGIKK", "assay_type": "functional"}, "[2]": {"assay": "alpha-synuclein stem-loop luciferase translation blockers – H4 neuroglioma cells, luminescence, confirmation (AID 1988)", "assay_type": "functional, cell-based"}, "HEK293": {"system": "HEK293", "assay": "EBV LMP1 TES2 canonical NF-kB signalling blockers – cell-based, HEK293, luciferase, cherry-pick, dose response (AID 588343)", "assay_type": "functional", "conditions": "Homo sapiens"}, "[3]": {"assay": "Luminescence Cell-Based Dose Response HTS to Identify Inhibitors of 5'UTR Stem-Loop Driven Prion Protein mRNA Translation in H4 Neuroglioblastoma Cells. [Related pubchem assays: 1827 (Project Summary), 1813 (Primary HTS)]", "assay_type": "functional"}, "[4]": {"assay": "luciferase reporter signal suppression in cells – H4 neuroglioma cells, luminescence, dose response (AID 1990)", "assay_type": "functional, cell-based"}, "CHO-K1": {"system": "CHO-K1", "assay": "(§1) Counterscreen for antagonists of the orexin 1 receptor (OX1R; HCRTR1): Homogeneous time resolved fluorescence (HTRF)-based cell-based dose response assay to identify antagonists of the parental CHO-K1 cell line. [Related pubchem assays (depositor defined):AID434989, AID435008, AID463079, AID485270, AID492963, AID492964, AID492965, AID493232, AID504699, AID504701]", "assay_type": "functional", "conditions": "Cricetulus griseus"}, "[5]": {"target": "T2, Orexin/Hypocretin receptor type 1 (Homo sapiens, UniProt O43613)", "T2 sequence (O43613 whole entry)": "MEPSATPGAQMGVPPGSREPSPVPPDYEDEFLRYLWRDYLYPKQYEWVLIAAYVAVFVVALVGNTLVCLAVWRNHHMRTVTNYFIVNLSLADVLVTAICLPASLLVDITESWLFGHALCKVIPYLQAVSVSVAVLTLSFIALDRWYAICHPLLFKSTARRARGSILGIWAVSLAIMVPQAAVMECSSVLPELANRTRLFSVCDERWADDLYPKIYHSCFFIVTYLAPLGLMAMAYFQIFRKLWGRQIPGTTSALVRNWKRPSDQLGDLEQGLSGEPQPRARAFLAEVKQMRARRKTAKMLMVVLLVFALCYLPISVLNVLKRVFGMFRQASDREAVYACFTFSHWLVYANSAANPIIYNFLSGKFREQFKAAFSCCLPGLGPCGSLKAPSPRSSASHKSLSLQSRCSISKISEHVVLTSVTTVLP", "assay": "Homogeneous Time Resolved Fluorescence (HTRF)-based cell-based high throughput dose response assay for antagonists of the orexin 1 receptor (OX1R; HCRTR1). [Related pubchem assays (depositor defined):AID434989, AID435008, AID463079, AID485270, AID492963, AID492964, AID492965, AID493232, AID504717, AID504718]", "assay_type": "functional"}, "Orexin receptor type 2 [6]": {"target": "T3, Orexin receptor type 2 (Homo sapiens, UniProt O43614)", "T3 sequence (O43614 whole entry)": "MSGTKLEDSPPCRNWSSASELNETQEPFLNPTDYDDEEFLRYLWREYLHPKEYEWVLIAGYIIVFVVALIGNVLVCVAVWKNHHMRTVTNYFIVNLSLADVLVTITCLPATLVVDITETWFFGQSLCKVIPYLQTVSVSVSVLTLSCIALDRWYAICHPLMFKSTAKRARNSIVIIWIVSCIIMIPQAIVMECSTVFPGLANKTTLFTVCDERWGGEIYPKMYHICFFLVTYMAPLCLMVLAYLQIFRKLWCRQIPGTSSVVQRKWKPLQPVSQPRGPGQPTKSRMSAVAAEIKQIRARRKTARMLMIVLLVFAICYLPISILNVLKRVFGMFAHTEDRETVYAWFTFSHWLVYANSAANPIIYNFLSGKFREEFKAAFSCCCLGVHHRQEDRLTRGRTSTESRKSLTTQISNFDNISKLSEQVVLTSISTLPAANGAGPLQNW", "assay": "Counterscreen assay for antagonists of the orexin 1 receptor (OX1R; HCRTR1): Fluorescence-based cell-based dose response assay for antagonists of the orexin 2 receptor (OX2R; HCRTR2), run by assay provider.", "assay_type": "functional"}, "[7]": {"target": "T4, Endoribonuclease toxin MazF (Escherichia coli K-12, UniProt P0AE70)", "T4 sequence (P0AE70 whole entry)": "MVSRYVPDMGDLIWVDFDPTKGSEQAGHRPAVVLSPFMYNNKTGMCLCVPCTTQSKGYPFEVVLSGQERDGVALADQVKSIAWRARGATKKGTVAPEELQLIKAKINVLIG", "assay": "substrate-only fluorescence increase artefacts – biochemical, single-stranded RNase substrate, counter-screen for MazEF activator project, dose response (AID 588502)", "assay_type": "functional"}, "[8]": {"target": "T2, Orexin/Hypocretin receptor type 1", "assay": "Fluorescence-based cell-based high throughput dose response assay for antagonists of the orexin 1 receptor (OX1R; HCRTR1). [Related pubchem assays (depositor defined):AID434989, AID435008, AID463079, AID485270, AID492963, AID492964, AID492965, AID493232, AID504717, AID504718]", "assay_type": "functional"}, "[9]": {"target": "T4, Endoribonuclease toxin MazF", "assay": "activation of MazEF endoribonuclease cleavage – biochemical, fluorescence, single-stranded RNA substrate, uHTS hits, dose response (AID 588481)", "assay_type": "functional"}, "Orexin receptor type 2 [10]": {"target": "T3, Orexin receptor type 2", "assay": "Counterscreen assay for antagonists of the orexin 1 receptor (OX1R; HCRTR1): Homogeneous Time Resolved Fluorescence (HTRF)-based cell-based dose response assay for antagonists of the orexin 2 receptor (OX2R; HCRTR2), run by assay provider.", "assay_type": "functional"}, "[11]": {"assay": "as §1, with “Fluorescence-based” for “Homogeneous time resolved fluorescence (HTRF)-based”, “cell-based high throughput” for “cell-based”, “CHO” for “CHO-K1”", "assay_type": "functional"}, "[12]": {"assay": "viability of uninfected HEp-2 cells – cell-based, HTS, cytotoxicity control for RSV inhibitor project, dose response (AID 2410)", "assay_type": "functional", "conditions": "human respiratory syncytial virus"}, "[13]": {"target": "T5, Serine/threonine-protein phosphatase (Candida dubliniensis (strain CD36 / CBS 7987 / NCPF 3949 / NRRLY-17841) (Yeast), UniProt B9W6M3)", "T5 sequence (B9W6M3 whole entry)": "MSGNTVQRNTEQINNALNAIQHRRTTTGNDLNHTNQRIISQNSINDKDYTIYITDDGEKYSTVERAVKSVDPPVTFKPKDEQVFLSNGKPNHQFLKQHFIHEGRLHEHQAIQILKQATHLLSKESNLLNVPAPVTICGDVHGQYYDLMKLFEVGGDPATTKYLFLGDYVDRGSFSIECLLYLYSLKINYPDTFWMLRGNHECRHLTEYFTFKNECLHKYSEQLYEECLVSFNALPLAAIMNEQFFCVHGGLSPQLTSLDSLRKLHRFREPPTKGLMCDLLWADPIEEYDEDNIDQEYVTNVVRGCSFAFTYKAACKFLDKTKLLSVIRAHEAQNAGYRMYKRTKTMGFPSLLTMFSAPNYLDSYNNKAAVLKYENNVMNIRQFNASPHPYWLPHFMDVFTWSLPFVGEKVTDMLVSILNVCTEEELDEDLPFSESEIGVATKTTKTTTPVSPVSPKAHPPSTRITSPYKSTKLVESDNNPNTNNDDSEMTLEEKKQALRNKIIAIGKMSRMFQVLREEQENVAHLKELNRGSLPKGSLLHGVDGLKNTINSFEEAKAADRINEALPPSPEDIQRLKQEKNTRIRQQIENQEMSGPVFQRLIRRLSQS", "assay": "blockers of CaCl2-induced CDRE-lacZ signaling – S. cerevisiae, luminescence, secondary, dose response (AID 2388)", "assay_type": "functional, cell-based"}, "[14]": {"assay": "fluconazole-exposed Candida albicans growth modulators – fluorescence, retest, confirmation (AID 2467)", "assay_type": "functional, cell-based"}, "[15]": {"assay": "NIH-3T3 fibroblast cytotoxicity, dose response, cytotoxicity control, cell-based, fluorescence, Alamar Blue, secondary assay (AID 2327)", "assay_type": "functional"}, "[16]": {"target": "T6, Calpain-2 catalytic subunit (Sus scrofa, UniProt P43367)", "T6 sequence (P43367 whole entry)": "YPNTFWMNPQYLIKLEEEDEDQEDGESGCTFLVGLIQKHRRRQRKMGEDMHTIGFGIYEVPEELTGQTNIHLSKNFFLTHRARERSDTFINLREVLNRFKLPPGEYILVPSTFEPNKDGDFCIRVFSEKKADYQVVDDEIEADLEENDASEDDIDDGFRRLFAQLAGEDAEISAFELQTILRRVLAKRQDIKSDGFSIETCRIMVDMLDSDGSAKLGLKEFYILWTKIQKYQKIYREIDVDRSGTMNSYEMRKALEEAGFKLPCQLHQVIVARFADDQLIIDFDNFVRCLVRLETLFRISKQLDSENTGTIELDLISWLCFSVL", "assay": "m-calpain protease blockers, concentration series – biochemical, fluorogenic peptide substrate, dose response (AID 1420)", "assay_type": "functional"}, "[17]": {"target": "ATP-dependent molecular chaperone HSP82 (Candida albicans (strain WO-1) (Yeast), UniProt C4YTQ8)", "sequence (C4YTQ8 whole entry)": "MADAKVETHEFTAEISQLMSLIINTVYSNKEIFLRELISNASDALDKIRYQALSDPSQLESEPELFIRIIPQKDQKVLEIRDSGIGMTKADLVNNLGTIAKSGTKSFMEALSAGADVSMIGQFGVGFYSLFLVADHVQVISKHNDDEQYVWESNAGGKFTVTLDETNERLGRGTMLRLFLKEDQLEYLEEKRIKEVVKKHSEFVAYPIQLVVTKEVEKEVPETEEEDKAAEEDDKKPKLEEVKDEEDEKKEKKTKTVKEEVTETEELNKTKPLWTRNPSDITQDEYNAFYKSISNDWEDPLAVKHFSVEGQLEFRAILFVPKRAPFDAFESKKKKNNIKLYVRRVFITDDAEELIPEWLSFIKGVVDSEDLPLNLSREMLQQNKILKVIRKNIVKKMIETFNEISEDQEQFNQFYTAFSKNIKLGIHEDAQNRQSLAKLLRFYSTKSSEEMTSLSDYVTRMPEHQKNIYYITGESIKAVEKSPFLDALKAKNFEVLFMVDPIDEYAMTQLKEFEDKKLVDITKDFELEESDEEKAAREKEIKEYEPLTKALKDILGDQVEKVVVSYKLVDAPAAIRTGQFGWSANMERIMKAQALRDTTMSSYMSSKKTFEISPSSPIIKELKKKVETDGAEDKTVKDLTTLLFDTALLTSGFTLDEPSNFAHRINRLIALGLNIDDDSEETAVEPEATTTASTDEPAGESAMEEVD", "assay": "steroid-induced GRE reporter decrease in yeast – S. cerevisiae, luminescence, Hsp90 inhibitor project, dose response (AID 2400)", "assay_type": "functional, cell-based"}}, "note": "Active and inactive are the calls of the source.", "data": [{"smiles": "O=C(NN=Cc1sc(=O)[n-]c1-[n+]1ccc(-c2ccncc2)cc1)c1ccccc1", "values": [{"measurement": "IC50", "setting": "[1]", "value": "155 µM (inactive)"}]}, {"smiles": "Oc1c2c(nc3c(-c4cccc(Br)c4)cnn13)CCCC2", "values": [{"measurement": "EC50", "setting": "[2]", "value": "9.2 µM (active)"}, {"measurement": "AC50", "setting": "HEK293", "value": "4.49 µM (active)"}, {"measurement": "EC50", "setting": "[3]", "value": "8.39 µM (active)"}, {"measurement": "EC50", "setting": "[4]", "value": "11.2 µM (active)"}]}, {"smiles": "Cc1cccc2c3nc4ccccc4nc3n(C)c12", "values": [{"measurement": "IC50", "setting": "CHO-K1", "value": "> 66.2 µM (inactive)"}, {"measurement": "IC50", "setting": "[5]", "value": "1.33 µM (active)"}, {"measurement": "IC50", "setting": "Orexin receptor type 2 [6]", "value": "11 µM (inactive)"}, {"measurement": "EC50", "setting": "[7]", "value": "51.9 µM (inactive)"}, {"measurement": "IC50", "setting": "[8]", "value": "8.12 µM (active)"}, {"measurement": "EC50", "setting": "[9]", "value": "> 99 µM (inactive)"}, {"measurement": "IC50", "setting": "Orexin receptor type 2 [10]", "value": "5.76 µM (active)"}, {"measurement": "IC50", "setting": "[11]", "value": "> 49.7 µM (inactive)"}, {"measurement": "CC50", "setting": "[12]", "value": "> 50 µM (active)"}]}, {"smiles": "COCCCNC(=O)CCC(=O)NNc1nc2ccccc2c2nc(-c3ccccc3)nn12", "values": [{"measurement": "IC50", "setting": "CHO-K1", "value": "> 66.2 µM (inactive)"}, {"measurement": "IC50", "setting": "[5]", "value": "3.55 µM (active)"}, {"measurement": "IC50", "setting": "Orexin receptor type 2 [6]", "value": "> 88.8 µM (inactive)"}, {"measurement": "IC50", "setting": "[8]", "value": "11.7 µM (inactive)"}, {"measurement": "IC50", "setting": "Orexin receptor type 2 [10]", "value": "> 50 µM (inactive)"}, {"measurement": "IC50", "setting": "[11]", "value": "> 49.7 µM (inactive)"}]}, {"smiles": "Cc1ccc(NC(=O)c2noc(C(C)C)c2[N+](=O)[O-])cc1", "values": [{"measurement": "EC50", "setting": "[13]", "value": "> 180 µM (inactive)"}, {"measurement": "EC50", "setting": "[14]", "value": "3.18 µM (active)"}, {"measurement": "EC50", "setting": "[15]", "value": "> 150 µM (inconclusive)"}, {"measurement": "IC50", "setting": "[16]", "value": "> 50 µM (not active)"}, {"measurement": "EC50", "setting": "[17]", "value": "> 160 µM (inactive)"}]}]}
